Source: ChEMBL document CHEMBL1136196, “Synthesis of three enantiomeric pairs of scyllo-inositol phosphate and molecular interactions between all possible regioisomers of scyllo-inositol phosphate and inositol 1,4,5-trisphosphate 3-kinase” (Bioorg Med Chem Lett, 2003)

Biological target: Inositol-trisphosphate 3-kinase A (Rattus norvegicus, UniProt P17105)
Experiment: Binding affinity against recombinant plasmid rat brain IP3K by overexpressing in Escherichia coli

Inositol-trisphosphate 3-kinase A, sequence (P17105 whole entry): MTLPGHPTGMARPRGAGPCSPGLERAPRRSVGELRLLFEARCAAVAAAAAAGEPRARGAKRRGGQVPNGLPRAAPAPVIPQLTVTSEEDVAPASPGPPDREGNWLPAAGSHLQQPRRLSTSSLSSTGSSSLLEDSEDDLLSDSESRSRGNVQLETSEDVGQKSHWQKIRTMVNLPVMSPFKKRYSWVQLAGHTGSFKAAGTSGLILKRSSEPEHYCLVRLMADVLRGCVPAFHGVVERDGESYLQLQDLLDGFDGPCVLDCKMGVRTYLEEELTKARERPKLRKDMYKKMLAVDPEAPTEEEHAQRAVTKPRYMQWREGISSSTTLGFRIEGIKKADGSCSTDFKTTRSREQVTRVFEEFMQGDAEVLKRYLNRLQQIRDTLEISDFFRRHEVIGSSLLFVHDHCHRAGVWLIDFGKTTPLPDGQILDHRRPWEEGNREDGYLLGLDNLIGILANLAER

SMILES | IC50
O=P(O)(O)O[C@H]1[C@H](OP(=O)(O)O)[C@@H](OP(=O)(O)O)[C@H](O)[C@@H](O)[C@H]1OP(=O)(O)O | > 100 µM
O=P(O)(O)O[C@H]1[C@@H](O)[C@@H](OP(=O)(O)O)[C@H](OP(=O)(O)O)[C@@H](OP(=O)(O)O)[C@@H]1O | 39.4 µM
O=P(O)(O)O[C@@H]1[C@H](O)[C@H](O)[C@@H](OP(=O)(O)O)[C@H](OP(=O)(O)O)[C@H]1O (stereo in doubt; form 1) [INS(1,4,5)P3] | 2.6 µM
O=P(O)(O)O[C@@H]1[C@H](O)[C@H](O)[C@@H](OP(=O)(O)O)[C@H](OP(=O)(O)O)[C@H]1O (stereo in doubt; form 2) [INS(1,4,5)P3] | 6.3 µM
O=P(O)(O)O[C@H]1[C@H](OP(=O)(O)O)[C@H](OP(=O)(O)O)[C@H](O)[C@@H](O)[C@H]1OP(=O)(O)O | > 100 µM
O=P(O)(O)O[C@H]1[C@H](OP(=O)(O)O)[C@H](O)[C@H](O)[C@@H](O)[C@@H]1OP(=O)(O)O | 27.4 µM
O=P(O)(O)O[C@H]1[C@H](O)[C@@H](OP(=O)(O)O)[C@H](OP(=O)(O)O)[C@@H](OP(=O)(O)O)[C@H]1O | 27.8 µM
O=P(O)(O)O[C@@H]1[C@H](O)[C@H](O)[C@@H](OP(=O)(O)O)[C@H](OP(=O)(O)O)[C@H]1O (stereo in doubt; form 3) [INS(1,4,5)P3] | 43.7 µM
O=P(O)(O)O[C@H]1[C@H](O)[C@@H](OP(=O)(O)O)[C@H](O)[C@@H](OP(=O)(O)O)[C@H]1O | 90 µM
